Test system: T1, mitochondrial complex I
T1 construct: native multi-subunit complex in sonicated mitochondria isolated from potato tuber; with Gamma-CA (complex I subunit detected in the pull-down)
Experiment: deamino-NADH oxidation ([…] nm) in sonicated mitochondria; OCR; pull-down with FSL0260-fixed agarose beads
Assay type: biochemical, Solanum tuberosum

## Cc1ccc(S(=O)(=O)OCC2Oc3ccccc3C=C2C[n+]2ccccc2)cc1 (stereo not shown) [FSL0260]
  IC50: 45.1 µM

From article PMC7250896, “Inhibition of mitochondrial complex I by the novel compound FSL0260 enhances high salinity-stress tolerance in Arabidopsis thaliana” (Scientific Reports, 2020)
